Source: ChEMBL document CHEMBL1212697, “High-content single-cell drug screening with phosphospecific flow cytometry” (Nat Chem Biol, 2008)
The source made the active and inactive calls. The rule behind the calls is not given here.

Experiments:
[1] = target: T1, MAP kinase p38 (Homo sapiens, UniProt O15264+Q15759+Q16539+P53778); test: Inhibition of anisomycin-induced p38 phosphorylation in human U937 cells by Phospho-Flow cytometry; type: cell-based; settings: u-937
[2] = target: T2, Janus Kinase (JAK) (Homo sapiens) (UniProt P52333+P23458+O60674+P29597); test: Inhibition of JAK-mediated GM-CSF-induced Stat5 phosphorylation in human U937 cells by Phospho-Flow cytometry at 20 uM; type: cell-based; settings: U-937
[3] = target: T2, Janus Kinase (JAK) (Homo sapiens); test: Inhibition of JAK-mediated interferon-gamma-induced Stat1 phosphorylation in human U937 cells by Phospho-Flow cytometry at 20 uM; type: cell-based; settings: U-937
[4] = target: T1, MAP kinase p38; test: Inhibition of anisomycin-induced p38 phosphorylation in human U937 cells by Phospho-Flow cytometry at 20 uM; type: cell-based; settings: U-937
[5] = Inhibition of JAK-mediated IL4-induced Stat5 phosphorylation in BALB/c mouse CD11b-int macrophages by Phospho-Flow cytometry
[6] = Inhibition of JAK-mediated IL6-induced Stat1 phosphorylation in BALB/c mouse B cells by Phospho-Flow cytometry; type: cell-based
[7] = Inhibition of JAK-mediated IL10-induced Stat3 phosphorylation in BALB/c mouse B cells by Phospho-Flow cytometry; type: cell-based
[8] = Inhibition of JAK-mediated interferon-gamma-induced Stat1 phosphorylation in BALB/c mouse B cells by Phospho-Flow cytometry; type: cell-based
[9] = Inhibition of JAK-mediated IL6-induced Stat3 phosphorylation in BALB/c mouse B cells by Phospho-Flow cytometry; type: cell-based
[10] = Inhibition of JAK-mediated IL15-induced Stat5 phosphorylation in BALB/c mouse B cells by Phospho-Flow cytometry; type: cell-based
[11] = Inhibition of JAK-mediated IL7-induced Stat5 phosphorylation in BALB/c mouse B cells by Phospho-Flow cytometry; type: cell-based
[12] = Inhibition of JAK-mediated IL4-induced Stat5 phosphorylation in BALB/c mouse B cells by Phospho-Flow cytometry; type: cell-based
[13] = Inhibition of JAK-mediated IL6-induced Stat1 phosphorylation in BALB/c mouse CD4+ T cells by Phospho-Flow cytometry; type: cell-based; settings: T-cell
[14] = Inhibition of JAK-mediated IL10-induced Stat3 phosphorylation in BALB/c mouse CD4+ T cells by Phospho-Flow cytometry; type: cell-based; settings: T-cell
[15] = Inhibition of JAK-mediated interferon-gamma-induced Stat1 phosphorylation in BALB/c mouse CD4+ T cells by Phospho-Flow cytometry; type: cell-based; settings: T-cell
[16] = Inhibition of JAK-mediated IL6-induced Stat3 phosphorylation in BALB/c mouse CD4+ T cells by Phospho-Flow cytometry; type: cell-based; settings: T-cell
[17] = Inhibition of JAK-mediated IL15-induced Stat5 phosphorylation in BALB/c mouse CD4+ T cells by Phospho-Flow cytometry; type: cell-based; settings: T-cell
[18] = Inhibition of JAK-mediated IL7-induced Stat5 phosphorylation in BALB/c mouse CD4+ T cells by Phospho-Flow cytometry; type: cell-based; settings: T-cell
[19] = Inhibition of JAK-mediated IL4-induced Stat6 phosphorylation in BALB/c mouse CD4+ T cells by Phospho-Flow cytometry; type: cell-based; settings: T-cell
[20] = Inhibition of JAK-mediated IL4-induced Stat5 phosphorylation in BALB/c mouse CD4+ T cells by Phospho-Flow cytometry; type: cell-based; settings: T-cell
[21] = Inhibition of JAK-mediated IL6-induced Stat1 phosphorylation in BALB/c mouse CD8+ T cells by Phospho-Flow cytometry; type: cell-based; settings: T-cell
[22] = Inhibition of JAK-mediated IL10-induced Stat3 phosphorylation in BALB/c mouse CD8+ T cells by Phospho-Flow cytometry; type: cell-based; settings: T-cell
[23] = Inhibition of JAK-mediated IL6-induced Stat3 phosphorylation in BALB/c mouse CD8+ T cells by Phospho-Flow cytometry; type: cell-based; settings: T-cell
[24] = Inhibition of JAK-mediated IL15-induced Stat5 phosphorylation in BALB/c mouse CD8+ T cells by Phospho-Flow cytometry; type: cell-based; settings: T-cell
[25] = Inhibition of JAK-mediated IL7-induced Stat5 phosphorylation in BALB/c mouse CD8+ T cells by Phospho-Flow cytometry; type: cell-based; settings: T-cell
[26] = Inhibition of JAK-mediated IL4-induced Stat6 phosphorylation in BALB/c mouse CD8+ T cells by Phospho-Flow cytometry; type: cell-based; settings: T-cell
[27] = Inhibition of JAK-mediated IL4-induced Stat5 phosphorylation in BALB/c mouse CD8+ T cells by Phospho-Flow cytometry; type: cell-based; settings: T-cell
[28] = Inhibition of JAK-mediated IL6-induced Stat1 phosphorylation in BALB/c mouse CD11b-hi neutrophils by Phospho-Flow cytometry
[29] = Inhibition of JAK-mediated IL10-induced Stat3 phosphorylation in BALB/c mouse CD11b-hi neutrophils by Phospho-Flow cytometry
[30] = Inhibition of JAK-mediated interferon-gamma-induced Stat1 phosphorylation in BALB/c mouse CD11b-hi neutrophils by Phospho-Flow cytometry
[31] = Inhibition of JAK-mediated IL6-induced Stat3 phosphorylation in BALB/c mouse CD11b-hi neutrophils by Phospho-Flow cytometry
[32] = Inhibition of JAK-mediated IL15-induced Stat5 phosphorylation in BALB/c mouse CD11b-hi neutrophils by Phospho-Flow cytometry
[33] = Inhibition of JAK-mediated IL7-induced Stat5 phosphorylation in BALB/c mouse CD11b-hi neutrophils by Phospho-Flow cytometry
[34] = Inhibition of JAK-mediated IL4-induced Stat5 phosphorylation in BALB/c mouse CD11b-hi neutrophils by Phospho-Flow cytometry
[35] = Inhibition of JAK-mediated IL6-induced Stat1 phosphorylation in BALB/c mouse CD11b-int macrophages by Phospho-Flow cytometry
[36] = Inhibition of JAK-mediated IL10-induced Stat3 phosphorylation in BALB/c mouse CD11b-int macrophages by Phospho-Flow cytometry
[37] = Inhibition of JAK-mediated interferon-gamma-induced Stat1 phosphorylation in BALB/c mouse CD11b-int macrophages by Phospho-Flow cytometry
[38] = Inhibition of JAK-mediated IL6-induced Stat3 phosphorylation in BALB/c mouse CD11b-int macrophages by Phospho-Flow cytometry
[39] = Inhibition of JAK-mediated IL15-induced Stat5 phosphorylation in BALB/c mouse CD11b-int macrophages by Phospho-Flow cytometry
[40] = Inhibition of JAK-mediated IL7-induced Stat5 phosphorylation in BALB/c mouse CD11b-int macrophages by Phospho-Flow cytometry
[41] = Inhibition of JAK-mediated IL4-induced Stat6 phosphorylation in BALB/c mouse CD11b-int macrophages by Phospho-Flow cytometry
[42] = tested on: B; test: Inhibition of JAK-mediated interferon-gamma-induced Stat1 phosphorylation in BALB/c mouse B cells at 3.5 uM by Phospho-Flow cytometry; type: cell-based
[43] = tested on: T-cell; test: Inhibition of JAK-mediated interferon-gamma-induced Stat1 phosphorylation in BALB/c mouse CD4+ T cells at 100 uM by Phospho-Flow cytometry; type: cell-based
[44] = tested on: Mus musculus; test: In vivo inhibition of JAK-mediated IL4-induced Stat6 phosphorylation in blood cells in BALB/c mouse at 1 to 10 mg/kg, iv administered 30 mins before IL challenge for 15 mins; type: functional, organism-based
[45] = tested on: Mus musculus; test: In vivo inhibition of JAK-mediated IL6-induced Stat3 phosphorylation in blood cells in BALB/c mouse at 1 to 10 mg/kg, iv administered 30 mins before IL challenge for 15 mins; type: functional, organism-based
[46] = tested on: Mus musculus; test: In vivo inhibition of JAK-mediated IL4-induced Stat6 phosphorylation in spleen cells in BALB/c mouse at 1 to 10 mg/kg, iv administered 30 mins before IL challenge for 15 mins; type: functional, organism-based
[47] = tested on: Mus musculus; test: In vivo inhibition of JAK-mediated IL6-induced Stat3 phosphorylation in spleen cells in BALB/c mouse at 1 to 10 mg/kg, iv administered 30 mins before IL challenge for 15 mins; type: functional, organism-based

Work on `COC1=C[C@]23CCCN2CCc2cc4c(cc2[C@@H]3[C@@H]1O)OCO4` [CEPHALOTAXINE] yielded an IC50 [1] of 0.2 µM, an inhibition [2] of 25% and an inhibition [3] of over 65%. It also gave an inhibition [4] of 25%.
`COC1=C(N)C(=O)c2nc(-c3nc(C(=O)O)c(C)c(-c4ccc(OC)c(OC)c4O)c3N)ccc2C1=O` [STREPTONIGRIN] gave an IC50 [5] of under 20 µM, an inhibition [2] of 25% and an inhibition [3] of over 65%. The inhibition [4] was 25%, the IC50 [6] was under 20 µM and the IC50 [7] was under 20 µM. The IC50 [8] was under 20 µM, the IC50 [9] was under 20 µM and the IC50 [10] was under 20 µM. It also gave an IC50 [11] of under 20 µM, an IC50 [12] of under 20 µM and an IC50 [13] of under 20 µM. It also gave an IC50 [14] of under 20 µM, an IC50 [15] of under 20 µM and an IC50 [16] of under 20 µM. The IC50 [17] was under 20 µM, the IC50 [18] was under 20 µM and the IC50 [19] was under 20 µM. The IC50 [20] was under 20 µM, the IC50 [21] was under 20 µM and the IC50 [22] was under 20 µM. It also gave an IC50 [23] of under 20 µM, an IC50 [24] of under 20 µM and an IC50 [25] of under 20 µM. The IC50 [26] was under 20 µM, the IC50 [27] was under 20 µM and the IC50 [28] was under 20 µM. It also gave an IC50 [29] of under 20 µM, an IC50 [30] of under 20 µM and an IC50 [31] of under 20 µM. The IC50 [32] was under 20 µM, the IC50 [33] was under 20 µM and the IC50 [34] was under 20 µM. It also gave an IC50 [35] of under 20 µM, an IC50 [36] of under 20 µM and an IC50 [37] of under 20 µM. The IC50 [38] was under 20 µM, the IC50 [39] was under 20 µM and the IC50 [40] was under 20 µM. For the same compound, the IC50 [41] was under 20 µM, the inhibition [42] was “Active” and the inhibition [43] was under 50%. For the same compound, the inhibition [44] was “Active”, the inhibition [45] was “Active” and the inhibition [46] was “Active”. For the same compound, the inhibition [47] was “Active”.
